Patent US20150094354A1, “METHOD FOR TREATING CELL PROLIFERATIVE DISORDER BY INHIBITING C1GALT1 EXPRESSION” (National Taiwan University, priority 2013, published 2015)

Experiments:
Type in all cases: cell-based, human
[1] = system: PLC5 cells; experiment: Cell-cycle analysis by propidium iodide flow cytometry; conditions: PLC5 (not shown)
Protocol: (§1) Cells (4×10^4) are seeded in each well of 6-well plates with DMEM containing 10% FBS. Viable cells are analyzed by Trypan blue exclusion assay at 0, 24, 48, and 72 hours. Cell proliferation is evaluated by immunostaining with anti-Ki67 antibody (1:1000; Vector Laboratories). For cell-cycle analysis, 1×10^6 cells are stained with propidium iodide (Sigma) for 30 minutes. The percentages of cells in G1, S, and G2M phases are analyzed by flow cytometry (Becton Dickinson).
(§2) FIGS. 10A-10B are schematic diagrams illustrating the effects of C1GALT1 on cell proliferation of hepatocellular carcinoma cells in vitro in accordance with an embodiment of the present invention. Cells were immunofluorescently stained for Ki67 and Ki67-positive cells were counted under a microscope. Results are presented as means±SD from three independent experiments. *, P<0.05; **, P<0.01.

[2] = system: HA22T cells; experiment: as above; conditions: HA22T (not shown)
Protocol: as §1, §2

[3] = system: PLC5 cells; experiment: Trypan blue exclusion cell viability assay; conditions: PLC5, up to 72 hours
Protocol: as §1
(§3) FIGS. 9A-9B are schematic diagrams illustrating the effects of C1GALT1 on the cell viability of hepatocellular carcinoma cells in vitro in accordance with an embodiment of the present invention. Cell viability of HA22T, PLC5, Sk-Hep1, and HCC36 cells was analyzed by Trypan blue exclusion assays at different time points for 72 hours. The results were standardized by the cell number at 0 hour. Data are represented as means±SD from three independent experiments. *, P<0.05; **, P<0.01.

[4] = system: HA22T cells; experiment: Trypan blue exclusion cell viability assay; conditions: up to 72 hours
Protocol: as §1, §3

[5] = system: C1GALT1; experiment: Knockdown of C1GALT1 expression confirmed by Western blotting / Q-PCR; conditions: siRNA
From the text: According to an embodiment of the present invention, in the experiment in vitro, two siRNA oligonucleotides against C1GALT1, 5′-[…] GG-3′ (SEQ ID NO: 1) and 5′-[…]-3′ (SEQ ID NO: 2), used as the C1GALT1 inhibition substance and a negative control siRNA of medium GC are synthesized by Invitrogen company.
According to another embodiment of the present invention, in the experiment in vivo, the pLKO/C1GALT1-shRNA plasmid containing the sequence, 5′-CCCAGCCTAATG TTCTTCATA-3′(SEQ ID NO: 13), against C1GALT1 is used as the C1GALT1 inhibition substance. The pLKO/C1GALT1-shRNA plasmid and non-targeting pLKO plasmids (as a negative control) are purchased from National RNAi Core Facility (Academia Sinica, Taipei, Taiwan). The short hairpin RNA (shRNA, 20 nM) plasmids are transfected with Lipofectamine® 2000 and selected with 500 ng/mL of puromycin for 10 days. […] Subsequently, 7×10^6 of hepatocellular carcinoma cells containing the pLKO/C1GALT1-shRNA plasmid and the non-targeting pLKO plasmid are subcutaneously injected into severe combined immunodeficient (SCID) mice (n=4 for each group). Tumor volumes are monitored for […]. Excised tumors are weighed and lysed for Western blotting and immunohistochemistry.
Equal amounts of protein samples are mixed with 5× sample buffer and boiled for 5 minutes, separated on SDS-polyacrylamide gels, and then transferred to PVDF membrane. The membranes are blocked in 5% BSA for 1 hour at room temperature, and incubated with primary antibodies overnight at 4° C. Anti-phosphotyrosine (4G10) antibody (Millipore, Billerica, Mass.), antibodies against C1GALT1, GAPDH, IGF-IR, MET pY 1234/5, IGF-IR pY1135/1136, p-AKT, p-ERK1/2, and ERK1/2 antibody (BD Pharmingen, San Jose, Calif.) are used. The blots are then incubated with secondary antibody conjugated with horseradish peroxidase and immunoreacted bands are detected by ECL reagents and exposed on x-ray film.
Total RNA is isolated using TRIzol reagent (Invitrogen) according to the manufacturer's protocol. Two micrograms of total RNA is used in reverse transcription reaction using the Superscript III First-Strand cDNA Synthesis Kit (Invitrogen). The cDNA is subjected to quantitative real-time RT-PCR (Q-PCR). Quantitative PCR System Mx3000P (Stratagene, La Jolla, Calif.) is used for quantitative real-time RT-PCR. Reactions are performed in a 20 μl volume with 2 μl cDNA, 400 nM of sense and anti-sense primers, and 10 μl Brilliant®SYBR®Green Q-PCR Master Mix (Stratagene). Primer sets are designed as the following: Primers for C1GALT1 are 5′-[…]-3′ (SEQ ID NO: 5) and 5′-[…]-3′(SEQ ID NO: 6). Primers for GAPDH are 5 ‘-[…]-3’ (SEQ ID NO: 8) and 5′-[…]-3′ (SEQ ID NO: 7). The relative quantity of gene expression normalized to GAPDH is analyzed using MxPro Software (Stratagene). […]

“C1GALT1 si-1: siRNA oligonucleotide against C1GALT1, presumably SEQ ID NO: 1, UUAGUAUACGUUCAGGUAAGGUAGG (chemistry not given here)” was tested, and the cell cycle [1] was “G1-phase arrest”, the cell cycle [2] was “G1-phase arrest” and the cell viability [3] was “significantly suppressed”. For the same substance, the cell viability [4] was “significantly suppressed”, the C1GALT1 expression ([5]; HA22T cells) was “knockdown of C1GALT1” and the C1GALT1 expression ([5]; PLC5 cells) was “knockdown of C1GALT1”.

For “C1GALT1 si-2: siRNA oligonucleotide against C1GALT1, presumably SEQ ID NO: 2, UUAUGUUGGCUAGAAUCUGCAUUGA (chemistry not given here)”, the cell cycle [1] was “G1-phase arrest”, the cell cycle [2] was “G1-phase arrest” and the cell viability [3] was “significantly suppressed”. The cell viability [4] was “significantly suppressed”, the C1GALT1 expression ([5]; HA22T cells) was “knockdown of C1GALT1” and the C1GALT1 expression ([5]; PLC5 cells) was “knockdown of C1GALT1”.
